The target in assay [1] is T1, human GPR40 (Homo sapiens, UniProt O14842).
T1 construct: expressed in transfected cells; host or cells: HEK cells stably expressing the aequorin reporter
The assay is described as follows: Inositol Phosphate Turnover (IP1) Assay 2. The format is cell-based. To be noted: HEK cells stably expressing human GPR40; 15,000 cells per well; compound acoustically transferred; CisBio IP-One kit. The method, then: Human and mouse GPR40 stable cell-lines were generated in CHO cells stably expressing NFAT BLA (Beta-lactamase). A human GPR40 stable cell-line was generated in HEK cells stably expressing the aequorin expressing reporter. The expression plasmids were transfected using lipofectamine (Life Technologies) following manufacturer's instructions. Stable cell-lines were generated following drug selection.
Inositol Phosphate Turnover (IP1) Assay 2:
The assay was performed in 384-well format. HEK cells stably expressing human GPR40 were plated at 15,000 cells per well in growth medium (DMEM/10% fetal calf serum). Cell plates were then incubated 16 hours at 37 degrees in a 5% CO2 incubator.
Measurement of Inositol Phosphate Turnover (IP1) was performed using the CisBio IP-One kit (Part number 62IPAPEB). After the 16 hour incubation, the cells were washed with HEPES buffer and 10 ul of stimulation buffer (prepared as described in the kit) was added to each well. In a separate plate, compounds were diluted in DMSO (400-fold over the final concentration in the assay well) and 25 nl was acoustically transferred to the appropriate well in the assay cell plate. The plates were then incubated for 60 minutes at 37 degrees. 10 ul of detection buffer (also prepared as described in the IP-One kit) was added to each well and the plates were incubated for 60 minutes in the dark. The plates were then read in a Perkin Elmer EnVision or equivalent reader able to measure FRET. Fluorescent ratio of emission at 665 and 620 nm was then converted to IP1 concentration by back calculating from an IP1 standard curve prepared at the time of the assay.

The target in assay [2] is T1, human GPR40. The assay is described as follows: Inositol Phosphate Turnover (IP1) Assay 3. The format is cell-based. To be noted: HEK cells stably expressing human GPR40. The essentials:
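HEK cells stably expressing human GPR40, plated 16 h before, were treated with compound for 60 min at 37 °C in stimulation buffer. IP1 measured by HTRF (665/620 nm ratio) against an IP1 standard curve; activity normalized to a reference compound, EC50 from 4-parameter fit.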

T1 sequence (O14842 whole entry): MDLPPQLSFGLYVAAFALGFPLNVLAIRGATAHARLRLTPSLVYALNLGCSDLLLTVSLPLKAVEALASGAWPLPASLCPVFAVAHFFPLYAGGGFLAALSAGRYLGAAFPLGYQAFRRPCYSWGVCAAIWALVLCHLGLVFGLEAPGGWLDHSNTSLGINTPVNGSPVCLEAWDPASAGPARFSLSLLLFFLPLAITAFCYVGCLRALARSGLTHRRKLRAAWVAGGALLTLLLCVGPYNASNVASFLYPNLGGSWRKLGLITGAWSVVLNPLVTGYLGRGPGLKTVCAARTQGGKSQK

For the compound `CNCc1cc(C2CCc3ccc([C@H](C4CC4)[C@H](C)C(=O)O)cc3O2)ccc1-c1cc(OC)ncc1F` (mixture of isomers) [Example 4], at human GPR40 [1], the EC50 (as a rule, the midpoint of the concentration-response curve) is 310 nM.
As to `COc1cc(-c2ccc(C3CCc4ccc([C@H](C5CC5)[C@H](C)C(=O)O)cc4O3)cc2CN2CCCC2)c(F)cn1` (mixture of isomers) [Example 9], a half-maximal effect at human GPR40 [1] (EC50) was put at 4.3 nM.
Still for that read-out and setting: then `COc1cc(-c2ccc(C3CCc4ccc([C@H](C5CC5)[C@H](C)C(=O)O)cc4O3)nc2CN2CCOCC2)c(F)cn1` (mixture of isomers) [Example 12], with 60 nM.
`COc1cc(-c2ccc(C3CCc4ccc([C@H](C5CC5)[C@H](C)C(=O)O)cc4O3)cc2CN2CCN(C)CC2)c(F)cn1` (mixture of isomers) [Example 13, (2S,3R)-3-cyclopropyl-3-(2-(4-(5-fluoro-2-methoxypyridin-4-yl)-3-(4-methylpiperazin-1-yl)methylphenyl)chroman-7-yl)-2-methylpropanoic acid] returned an EC50 at human GPR40 [1] of 210 nM.
In turn, `COc1cc(-c2ccc(C3CCc4ccc([C@H](C5CC5)[C@H](C)C(=O)O)cc4O3)cc2CN2CCC(F)(F)C2)c(F)cn1` (mixture of isomers) [Example 17] gave an EC50 on human GPR40 [1] of 0.7 nM.
`COc1cc(-c2ccc(C3CCc4ccc([C@H](C5CC5)[C@H](C)C(=O)O)cc4O3)cc2CN2CCNCC2)c(F)cn1` (mixture of isomers) [Example 33]: the EC50 at human GPR40 [1] turned out to be 573 nM.
In the case of `COc1cc(-c2ccc(C3CCc4ccc([C@H](C5CC5)[C@H](C)C(=O)O)cc4O3)cc2CN2CC(C)C2)c(F)cn1` (mixture of isomers) [Example 35], it took 22 nM to reach a half-maximal effect at human GPR40 [1] (EC50).
On to `COc1cc(-c2ccc(C3CCc4ccc([C@H](C5CC5)[C@H](C)C(=O)O)cc4O3)cc2CN2CCn3cncc3C2)c(F)cn1` (mixture of isomers) [Example 40], for which the EC50 at human GPR40 [1] amounted to 184 nM.
Consider `COc1cc(-c2ccc(C3CCc4ccc([C@H](C5CC5)[C@H](C)C(=O)O)cc4O3)cc2CN2CCOC3(CC3)C2)c(F)cn1` (mixture of isomers) [Example 42], for which the EC50 at human GPR40 [1] was determined as 3.1 nM.
As to `COc1cc(-c2ccc(C3CCc4ccc([C@H](C5CC5)[C@H](C)C(=O)O)cc4O3)cc2CN2CCC(OC)CC2)c(F)cn1` (mixture of isomers) [Example 45], a half-maximal response at human GPR40 [1] (EC50) required 12 nM.
Compound `COc1cc(-c2ccc(C3CCc4ccc([C@H](C5CC5)[C@H](C)C(=O)O)cc4O3)cc2CN2CCC(F)(F)CC2)c(F)cn1` (mixture of isomers) [Example 46] had an EC50 at human GPR40 [1] of 1 nM.
Compound `COc1cc(-c2ccc(C3CCc4ccc([C@H](C5CC5)[C@H](C)C(=O)O)cc4O3)cc2CN2CC(F)C2)c(F)cn1` (mixture of isomers) [Example 47] showed an EC50 at human GPR40 [1] of 3.5 nM.
In turn, `COc1cc(-c2ccc(C3CCc4ccc([C@H](C5CC5)[C@H](C)C(=O)O)cc4O3)cc2CN2CCC2(C)C)c(F)cn1` (mixture of isomers) [Example 49] displayed an EC50 on human GPR40 [1] of 4 nM.
With `COc1cc(-c2ccc(C3CCc4ccc([C@H](C5CC5)[C@H](C)C(=O)O)cc4O3)cc2CN(C2CC2)C2CC2)c(F)cn1` (mixture of isomers) [Example 52], at human GPR40 [1], the EC50 was 0.35 nM.
Consider `COc1cc(-c2ccc(C3CCc4ccc([C@H](C5CC5)[C@H](C)C(=O)O)cc4O3)cc2CN(C2CC2)C2COC2)c(F)cn1` (mixture of isomers) [Example 53], for which it took 1.7 nM to reach a half-maximal effect on human GPR40 [1] (EC50).
On to `COc1cc(-c2ccc(C3CCc4ccc([C@H](C5CC5)[C@H](C)C(=O)O)cc4O3)cc2CN2CCCC(C)(C)C2)c(F)cn1` (mixture of isomers) [Example 55], for which, at human GPR40 [1], it took 0.73 nM to reach a half-maximal effect (EC50).
With `COc1cc(-c2ccc(C3CCc4ccc([C@H](C5CC5)[C@H](C)C(=O)O)cc4O3)cc2CN(C)C2CC2)c(F)cn1` (mixture of isomers) [Example 57], the EC50 at human GPR40 [1] turned out to be 0.18 nM.
On human GPR40 [2], `C[C@H](C(=O)O)[C@H](c1ccc2c(c1)OC(c1ccc(-c3cc(O)ncc3F)c(CN(C)C3CCOC3)c1)CC2)C1CC1` (some centres unmarked) [Example 268a] yielded an EC50 of 0.6 nM.
Regarding `COc1cc(-c2ccc(C3CCc4ccc([C@H](C5CC5)[C@H](C)C(=O)O)cc4O3)cc2CN2C[C@H]3CC[C@@H]2C3)c(F)cn1` (some centres unmarked) [Example 269], it took 6.2 nM to reach a half-maximal effect on human GPR40 [2] (EC50).
As for `COc1cc(-c2ccc(C3CCc4ccc([C@H](C5CC5)[C@H](C)C(=O)O)cc4O3)cc2CN2C3CCCC2CC3)c(F)cn1` (some centres unmarked) [Example 270], the EC50 at human GPR40 [2] turned out to be 0.9 nM.
For the compound `COc1cc(-c2ccc(C3CCc4ccc([C@H](C5CC5)[C@H](C)C(=O)O)cc4O3)cc2CN2CCC(C#N)CC2)c(F)cn1` (some centres unmarked) [Example 271], a half-maximal effect on human GPR40 [2] (EC50) was put at 2.6 nM.
Take `COc1cc(-c2ccc(C3CCc4ccc([C@H](C5CC5)[C@H](C)C(=O)O)cc4O3)cc2CN2CCC(C(N)=O)CC2)c(F)cn1` (some centres unmarked) [Example 272]: on human GPR40 [2], the EC50 was 278 nM.
Same read-out and setting: next, `COc1cc(-c2ccc(C3CCc4ccc([C@H](C5CC5)[C@H](C)C(=O)O)cc4O3)cc2CN2[C@H](C)CC[C@H]2C)ccn1` (some centres unmarked) [Example 274]: 4.3 nM; `COc1cc(-c2ccc(C3CCc4ccc([C@H](C5CC5)[C@H](C)C(=O)O)cc4O3)cc2CN2[C@H](C)CC[C@@H]2C)ccn1` (some centres unmarked) [Example 275]: 2.8 nM; `COc1cc(-c2ccc(C3CCc4ccc([C@H](C5CC5)[C@H](C)C(=O)O)cc4O3)cc2CN2CCCCC23CC3)ccn1` (some centres unmarked) [Example 276]: 0.2 nM.
On the same count and under the same terms, then `COc1cc(-c2ccc(C3CCc4ccc([C@H](C5CC5)[C@H](C)C(=O)O)cc4O3)cc2CN2CCCC3(CC3)C2)ccn1` (some centres unmarked) [Example 277], with 1.9 nM.
The compound `COc1cc(-c2ccc(C3CCc4ccc([C@H](C5CC5)[C@H](C)C(=O)O)cc4O3)cc2CN2CCCC2)ccn1` (some centres unmarked) [Example 278] came in with an EC50 on human GPR40 [2] of 19 nM.
Consider `COc1cc(-c2ccc(C3CCc4ccc([C@H](C5CC5)[C@H](C)C(=O)O)cc4O3)cc2CN2CCC[C@@H]2C)ccn1` (some centres unmarked) [Example 279], for which a half-maximal response at human GPR40 [2] (EC50) required 30 nM.
`COc1cc(-c2ccc(C3CCc4ccc([C@H](C5CC5)[C@H](C)C(=O)O)cc4O3)cc2CN2CCC[C@H]2C)ccn1` (some centres unmarked) [Example 280]: the EC50 at human GPR40 [2] came out at 16 nM.
`COc1cc(-c2ccc(C3CCc4ccc([C@H](C5CC5)[C@H](C)C(=O)O)cc4O3)cc2CN2CCCC2(C)C)ccn1` (some centres unmarked) [Example 281]: at human GPR40 [2], the response was half-maximal at 5.7 nM (EC50).
Compound `COc1cc(-c2ccc(C3CCc4ccc([C@H](C5CC5)[C@H](C)C(=O)O)cc4O3)cc2CN2CCC(C)(C)C2)ccn1` (some centres unmarked) [Example 282] displayed an EC50 on human GPR40 [2] of 7.4 nM.
The same measure, in the same setting: next, `COc1cc(-c2ccc([C@@H]3CCc4ccc([C@H](C5CC5)[C@H](C)C(=O)O)cc4O3)cc2CN(C(C)C)C(C)C)ccn1` [Example 284, Sodium (2S,3R)-3-cyclopropyl-3-((S)-2-(3-((diisopropylamino)methyl)-4-(2-methoxypyridin-4-yl)phenyl)chroman-7-yl)-2-methylpropanoate]: 0.3 nM; `COc1cc(-c2ccc(C3CCc4ccc([C@H](C5CC5)[C@@H](C)C(=O)O)cc4O3)cc2CN(C(C)C)C(C)C)ccn1` (some centres unmarked) [Example 285]: 4 nM.
As to `COc1cc(-c2ccc(C3CCc4ccc([C@H](C5CC5)[C@H](C)C(=O)O)cc4O3)cc2CN(C)C(C)C)ccn1` (some centres unmarked) [Example 286], at human GPR40 [2], the EC50 was found to be 11 nM.
Regarding `CCN(Cc1cc(C2CCc3ccc([C@H](C4CC4)[C@H](C)C(=O)O)cc3O2)ccc1-c1ccnc(OC)c1)C(C)C` (some centres unmarked) [Example 287], the EC50 at human GPR40 [2] was determined as 3.3 nM.
With `COc1cc(-c2ccc(C3CCc4ccc([C@H](C5CC5)[C@H](C)C(=O)O)cc4O3)cc2CN(C)C(C)(C)C)ccn1` (some centres unmarked) [Example 288], it took 21 nM to reach a half-maximal effect on human GPR40 [2] (EC50).
At human GPR40 [2], `COc1cc(-c2ccc(C3CCc4ccc([C@H](C5CC5)[C@H](C)C(=O)O)cc4O3)cc2CN2[C@H]3CC[C@@H]2CC3)ccn1` (some centres unmarked) [Example 289] showed an EC50 of 72 nM.
`COc1cc(-c2ccc(C3CCc4ccc([C@H](C5CC5)[C@H](C)C(=O)O)cc4O3)cc2CN2C3CCCC2CC3)ccn1` (some centres unmarked) [Example 290] came in with an EC50 on human GPR40 [2] of 22 nM.
Regarding `CCN(CC)Cc1cc(C2CCc3ccc([C@H](C4CC4)[C@H](C)C(=O)O)cc3O2)ccc1-c1cc(OC)ncc1C#N` (some centres unmarked) [Example 291], the EC50 on human GPR40 [2] is 3.1 nM.
As to `COc1cc(-c2ccc(C3CCc4ccc([C@H](C5CC5)[C@H](C)C(=O)O)cc4O3)cc2CN(C(C)C)C(C)C)c(C#N)cn1` (some centres unmarked) [Example 292], the EC50 on human GPR40 [2] is 0.1 nM.
Still for that read-out and setting: then `COc1cc(-c2ccc(C3CCc4ccc([C@H](C5CC5)[C@H](C)C(=O)O)cc4O3)cc2CN2CCCCC23CC3)c(C#N)cn1` (some centres unmarked) [Example 293], with 0.08 nM.
The same measure, in the same setting: next, `CCN(Cc1cc(C2CCc3ccc([C@H](C4CC4)[C@H](C)C(=O)O)cc3O2)ccc1-c1cc(OC)ncc1C#N)C(C)C` (some centres unmarked) [Example 294]: 0.5 nM.
Consider `C[C@H](C(=O)O)[C@H](c1ccc2c(c1)OC(c1ccc(-c3cc(O)ncc3C#N)c(CN3CCCCC34CC4)c1)CC2)C1CC1` (some centres unmarked) [Example 295], for which a half-maximal response on human GPR40 [2] (EC50) required 85 nM.
Consider `COc1ccc(F)c(-c2ccc(C3CCc4ccc([C@H](C5CC5)[C@H](C)C(=O)O)cc4O3)cc2CN2CCCCC23CC3)n1` (some centres unmarked) [compound 190], for which the EC50 on human GPR40 [2] came out at 3.9 nM.
